The assay has as its system CEM cells HIV-1 protection, formazan growth assay. In words: NCI AIDS Antiviral Assay. The settings on record: for IC50: measured here: growth of uninfected CEM cells. In outline: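 Human CEM cells, uninfected and HIV-1-infected, received five drug concentrations, and growth was read by soluble formazan assay. Compounds giving at least 50% protection were retested; reproducible 100% protection defined confirmed active.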

Active and inactive are the calls of the source.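 Rule for the calls: active = compounds giving half or more protection of infected cells from virus-caused growth loss, again on retest; inactive = the rest.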

As usually defined, the EC50 is the concentration at which the effect is half-maximal. As usually defined, the IC50 is the concentration at which inhibition is half-maximal. In the case of `N#CC(N)=Nc1ccccc1`, the EC50 was above 617 µM and the IC50 worked out at 347 µM. For `CC1=C(c2cc(C(=O)Nc3ccc(Cl)c(Cl)c3)nc(N)n2)Sc2ccccc2N1`, the EC50 was above 81.3 µM and the concentration for half-maximal inhibition (IC50) was above 81.3 µM.

In the case of `Nc1nnnn1CCCl`, the EC50 was above 200 µM and the IC50 is above 200 µM.

Regarding `CN(C)c1ccc(/C=C/C(=O)c2ccccc2)cc1`, the EC50 was above 39.8 µM and the IC50 amounted to 14.8 µM. As for `O=C1c2ccccc2NC2(C(=O)Nc3ccccc32)N1N1CCOCC1` (centres undefined), the EC50 is above 200 µM and the IC50 was above 200 µM.

As for `N#CC(C#N)=CNC(=S)c1ccncc1`, the EC50 was above 200 µM and the IC50 was 166 µM.

In the case of `CN1C(=O)c2ccccc2C1(N)c1ccccc1` (centres undefined), the EC50 was 661 µM and the IC50 turned out to be 871 µM. For `CCOP(=O)(OCC)/C(C#N)=C/c1cccn1C`, the EC50 was 46.8 µM and the IC50 worked out at 537 µM. For `CCOC(=O)c1cc(C2CCN(c3ccccc3)C2=O)c(/C(O)=C/C(C)=O)[nH]1` (centres undefined) the same measures were above 200 µM and 5.01 µM. Take `Cc1nn(C2OC(CO)C(O)C(F)C2O)c(=O)[nH]c1=O` (centres undefined): the EC50 is above 200 µM and the IC50 was above 200 µM. Regarding `CCC1(CCC#N)CCC(N)=CC1=O` (centres undefined), the EC50 was above 200 µM and the IC50 is above 200 µM. Take `Nc1cccc2nnccc12`: the EC50 is above 200 µM and the IC50 was above 200 µM. For `C=CCNC(=O)NC(=O)CSC1=NNC2(C(=O)N1)c1ccccc1-c1ccccc12`, the EC50 was above 200 µM and the IC50 worked out at 29.5 µM.

For `COc1ccc(/C(C#N)=C/c2ccc(N(C)CCC#N)cc2)cc1`, the EC50 was above 200 µM and the IC50 was 3.16 µM. In the case of `CNc1nc2c(C)ccc3[nH]c(N(C)C)nc3c-2n1`, the EC50 was above 759 µM and the IC50 was 50.1 µM. In the case of `Cc1cc2nc(-c3ccccc3[N+](=O)[O-])[nH]c2cc1C`, the outcome was inactive. `Fc1ccc(OCc2ccc3nc(-c4ccccc4)c(Cl)nc3c2)cc1`: the EC50 is above 100 µM and the IC50 was above 100 µM. Regarding `COc1ccc(/C(=N\N)C2=NNC3(CCCCC3)NN2)cc1`, the result was inactive. For the compound `c1ccc2c(c1)CCc1c-2n(CCN2CCOCC2)c2ccccc12`, the EC50 is above 200 µM and the IC50 was above 200 µM. On to `CC(=O)Nc1ccc(CNc2cc(=O)n(C)c(=O)[nH]2)cc1`, for which the EC50 was above 200 µM and the IC50 is above 200 µM.

Turning to `O=C(OCCO)c1c(Cl)c(Cl)c(Cl)c(Cl)c1-c1c2cc(Br)c(=O)c(Br)c-2oc2c(Br)c(O)c(Br)cc12`, the EC50 was above 61.7 µM and the half-inhibitory concentration (IC50) stood at 20.9 µM. For the compound `CCOC(=O)[C@@]12C[C@@H](C#N)C1N(Cc1ccccc1)[C@@H]1ON=C(c3ccc(Cl)cc3)[C@@H]1C2` (some centres undefined), the result was inactive. For `Cc1ccc([P+](Cc2ccccc2)(c2ccccc2)c2ccccc2)cc1`, the EC50 is above 200 µM and the IC50 came to 1.1 µM.

On to `O=C1OC(c2ccccc2)=N/C1=C\c1ccco1`, for which the EC50 is above 75.9 µM and the IC50 turned out to be 60.3 µM. Turning to `C=CCNC(=S)N/C=C\c1c(C(=O)O)cc([N+](=O)[O-])cc1[N+](=O)[O-]`, the EC50 is above 200 µM and the IC50 is above 100 µM. In the same order, the values of `COC1CC(OC2C(C)OC(OC3C(C)OC(OC4C(C)OC(O[C@H]5CC[C@@]6(C)C(=CC[C@]7(O)[C@@H]6C[C@@H](OC(C)=O)[C@@]6(C)[C@]7(O)CC[C@@]6(O)C(C)=O)C5)CC4OC)CC3OC)CC2OC)OC(C)C1O` (some centres undefined) are above 200 µM and above 200 µM.

Take `Cc1ccc2c(c1)C(=O)N1CCC[C@H]1C=N2`: the EC50 is above 200 µM and the IC50 amounted to 3.63 µM. Regarding `C#CCN1C(=O)CN2C(Cl)(Cl)C2(c2ccccc2)c2cc(Cl)ccc21` (centres undefined), the EC50 was above 200 µM and the IC50 was found to be 22.9 µM. On to `Cc1cc(O)c(/C=N/C(=S)Nc2ccccc2)c(=O)o1`, for which the EC50 was above 200 µM and the IC50 is above 200 µM.

Take `N=c1nc(N)nc2c3ccccc3nnn12`: the EC50 is above 24.5 µM and the IC50 is above 24.5 µM. In the case of `O=C1CCCc2ccc([N+](=O)[O-])c(O)c21`, the result was inactive. Consider `O=C(/C=C/c1ccccc1)c1cc(CN2CCOCC2)c(O)c(CN2CCOCC2)c1`, for which the EC50 was above 200 µM and the concentration for half-maximal inhibition (IC50) was found to be 8.51 µM. In the case of `Cc1ccc(NC2=CC(=O)C(NO)c3ccccc32)cc1` (centres undefined), the EC50 is above 200 µM and the IC50 came out at 3.89 µM. As to `CCN(CC)C(=O)N1CCN(C=S)CC1`, the EC50 was above 794 µM and the IC50 is above 794 µM. Turning to `C[C@@H]1C(=O)O[C@@H]2C[C@@]1(C)[C@@H]1C(=O)C3(O)OC14C2(C)OC(=O)[C@@]4(O)CCC1C3C(O)C=C2CC=CC(=O)[C@@]21C` (some centres undefined), the EC50 was above 200 µM and the IC50 was 20 µM.

For `NC(N)=NNC(O)(C(=O)O)C(=O)O`, the EC50 is above 200 µM and the IC50 was above 200 µM. For `CC1=N[C@@](C)(C2CC3C=CC2C3=O)COC1=O` (some centres undefined), the EC50 was above 288 µM and the IC50 was above 288 µM.

`CCCN(CCC)C1CCc2c(ccc3cc[nH]c23)C1` (centres undefined): the result was inactive.

Regarding `COC(=O)C1=C(C(=O)OC)SC(=CC#CC=C2SC(C(=O)OC)=C(C(=O)OC)S2)S1`, the EC50 was above 5.62 µM and the IC50 was above 5.62 µM.

On to `COc1ccc(N/N=C/C2=CC(C)(C)C(C#N)(C#N)C(O)=C2C#N)cc1`, for which the EC50 was above 200 µM and the IC50 was found to be 28.2 µM. `CCOC(=O)C(=O)C1CCCCC1=O` (centres undefined): the EC50 was above 200 µM and the IC50 came to 43.7 µM.

As for `CCCCCCCCCCn1nnc2c(=O)[nH]c(N)nc21`, the EC50 was above 200 µM and the IC50 came to 52.5 µM. Consider `c1ccc2sc(SCN3CCCCC3)nc2c1`, for which the EC50 was above 200 µM and the IC50 is 81.3 µM. In the case of `c1ccc(C2Nc3ccccc3C3OCCCC23)cc1` (centres undefined), the EC50 is above 70.8 µM and the IC50 was above 70.8 µM.

Take `c1ccc2c(c1)[nH]c1cnc3c4ncccc4[nH]c3c12`: the result was inactive. In the case of `CC(=O)O/N=C(/C)c1ccccc1O`, the EC50 was above 26.9 µM and the IC50 was above 26.9 µM. With `O=c1[nH]nc(Cc2ccccc2)n1/N=C/c1ccccc1O`, the EC50 is above 200 µM and the IC50 stood at 85.1 µM. `c1ccc(C2=NC3OC2c2ccccc23)cc1` (centres undefined): the EC50 is above 200 µM and the IC50 is above 200 µM.

As to `CCCCOCc1cc(CN2CCN(C)CC2)c(O)c2ncccc12`, the EC50 was above 145 µM and the IC50 amounted to 8.71 µM. In the same order, the values of `Cc1nc2ccccn2c1N=Nc1ccc(C(=O)NN)cc1` are above 33.9 µM and above 33.9 µM. For the compound `CN1C(=O)C(/C=N/NC(=O)c2cccnc2)C(N)N(C)C1=O` (centres undefined), the EC50 was above 200 µM and the IC50 was above 200 µM.

For `O=c1oc2ccccc2c(O)c1C=NC(=S)c1ccncc1`, the EC50 was above 200 µM and the IC50 worked out at 182 µM. Take `COc1ccc2nc(/C(N)=C\C#N)ccc2c1`: the EC50 was above 200 µM and the IC50 is 41.7 µM. Regarding `O=C(/C=C/c1ccc(Cl)cc1)c1cccs1`, the EC50 is above 200 µM and the IC50 came to 1.23 µM. Turning to `O=C1/C(=C/c2ccccc2)CCC/C1=C\c1ccccc1`, the EC50 is above 200 µM and the IC50 came out at 8.13 µM. `O=C(O)c1cc([N+](=O)[O-])c2c(c1)P(=O)(O)c1cc(C(=O)O)cc([N+](=O)[O-])c1O2`: the EC50 was above 200 µM and the IC50 was above 200 µM. Take `c1ccc(C2C3=C(CCCC3)Nc3nc4cc5ccccc5cc4n32)cc1` (centres undefined): the EC50 is above 200 µM and the IC50 was above 200 µM. Consider `COC(=O)NC1C(C)OC(OC2C/C=C(/C)C3C=CC4C(OC5CC(OC6CC(O)C(OC7CC(O)C(OC)C(C)O7)C(C)O6)C(O)C(C)O5)C(C)CC(C)C4C3(C)/C(O)=C3\C(=O)OC4(CC(C)C(CO)=CC4/C=C\2C)C3=O)CC1(C)[N+](=O)[O-]` (centres undefined), for which the EC50 is above 209 µM and the IC50 was 4.79 µM. With `COc1ccc(CC(=O)NCCc2ccc(OC)c(OC)c2)cc1Br`, the EC50 is above 316 µM and the IC50 is above 316 µM. In the case of `CCC1(CCCC=C(c2cc(Cl)c(OC)c(C(=O)OC)c2)c2cc(Cl)c(OC)c(C(=O)OC)c2)OCCO1`, the EC50 was above 200 µM and the IC50 amounted to 148 µM.

`CCOC(=O)C1N(S(=O)(=O)c2ccc(C)cc2)CCC12C(c1ccc(OC)c(OC)c1)=Nc1ccccc12` (centres undefined): the outcome was inactive. On to `CON(C)C(=O)C(C)NC(=O)OCc1ccccc1` (centres undefined), for which the EC50 is above 933 µM and the IC50 stood at 813 µM. Regarding `c1ccc(N=c2sc3ccccc3sc2=Nc2ccccc2)cc1`, the EC50 is above 200 µM and the IC50 was determined as 3.09 µM.

With `Cn1c(=O)cc(C=Nc2ccc(N=Nc3ccccc3)cc2)c2ccccc21`, the EC50 was above 200 µM and the IC50 amounted to 1.51 µM. Turning to `COC(=O)/C(=N\NC(=S)NN)C(C(=O)C(=O)Nc1ccccc1C(N)=O)c1nc2ccccc2[nH]c1=O` (centres undefined), the EC50 is above 347 µM and the IC50 was above 347 µM. With `CCOP(=O)(OCC)[C@]12C[C@@H](C)C=C[C@H]1COC2=O`, the EC50 was above 200 µM and the IC50 was 135 µM. In the same order, the values of `CC1=NN(C(=O)CC(=O)Nc2ccccc2)C(=O)C1N=Nc1ccc(C(=O)O)cc1` (centres undefined) are above 200 µM and 58.9 µM.

Turning to `CN(C)CC(/C(Cc1ccccc1)=N\NC(=O)C[n+]1ccccc1)c1ccccc1` (centres undefined), the EC50 was above 295 µM and the IC50 turned out to be 138 µM. Regarding `Cc1cn(C2CC3C(COC(C)(C)N3O)O2)c(=O)[nH]c1=O` (centres undefined), the EC50 is 7.76 µM and the IC50 is above 200 µM. With `N#CC(C#N)=C(N)/C(C#N)=C/c1ccc(O)c(O)c1`, the EC50 is above 200 µM and the IC50 came to 61.7 µM. As to `N#C/C(=C\c1cccc(Br)c1)c1nc2ccccc2c(=O)[nH]1`, the result was inactive. On to `O=C(N/N=C\c1ccc[nH]1)c1ccncc1`, for which the EC50 was above 200 µM and the IC50 was above 200 µM. In the case of `Cc1ccc(N=C(SSC(Cl)(Cl)Cl)SSC(Cl)(Cl)Cl)cc1`, the result was inactive. In the case of `O=C1c2ccccc2CC12Cc1cc3c(cc1C2)CCC3`, the EC50 is above 200 µM and the IC50 was above 200 µM.

The values are drawn from PubChem BioAssay AID179 (DTP/NCI, 2004).
